Experimental data: patent US7326534B2, “Detection of gleevec resistant mutations” (Oregon Health and Science University, priority 2001, dated 2008)

Test system: Src family kinases
Assay: inhibition of tyrosine kinase
Format: biochemical
Excerpt: […]. […] […]. […] […]

Structure (SMILES): Cc1ccc(NC(=O)c2ccc(CN3CCN(C)CC3)cc2)cc1Nc1nccc(-c2cccnc2)n1 [STI571, N-[4-methyl-3-(4-pyridin-3-yl-pyrimidin-2-ylamino)-phenyl]-4-(4-methyl-piperazin-1-ylmethyl)-benzamide]
- inhibition of kinase (in words): not
